Here are results for 26 molecules from patent US8999983B2, “Modulators of Hec1 activity and methods therefor” (Taivex Therapeutics Corporation, priority 2011, dated 2015).

Like-named read-outs stand apart in the source and are kept apart here. Bounds are passed on as bounds.

Holding throughout (format): cell-based
One experiment concerns Hela. As to the kind of experiment: Antiproliferation assay (MTS), HeLa cells. The note with it: Homo sapiens, 96 h. The method, then: (§1) Cells were grown at 37° C. in a humidified atmosphere consisting of 5% CO2 and 95% air.
(§2) Antiproliferation Assays: Cells were plated in a 96-well culture plate with 2000-8000 cells per well. The compounds were prepared in DMSO and used to treat cells in a final concentration of less than 1% DMSO. Compound treatment started after overnight incubation of cells (T0). […] Compound was added to the plate in triplicate wells, and the plates were then incubated for 96 hours. DMSO (compound diluent) was also included and added to the plate in control wells. Cell viability was then determined by MTS assay using the CellTiter 96® aqueous non-radioactive cell proliferation assay system (Promega, Madison, Wis. 53711 USA). A plate reader (Vmax, Molecular Devices, Sunnyvale Calif. 94089 USA) was used to determine the optical densities, and the results were used to deduce concentration-response curves. […] The results were analyzed using linear regression software (GraphPad Prism 5; GraphPad Software Inc. La Jolla Calif. 92037 USA).

Another experiment deals with MDA-MB-231. The experiment is described as follows: Antiproliferation assay (MTS), MDA-MB-231 cells. The note with it: Homo sapiens, MDA-MB-231, 96 h, read-out: Antiproliferative IC50 MDA-MB-231, Table 1. How it is done:
as §1, §2

A further experiment deals with K562. The experiment is described as follows: Antiproliferation assay (MTS), K562 cells. The following applies: Homo sapiens, K562, 96 h. How it is done:
as §1, §2

The subject of another experiment is MDA-MB-468. As to the kind of experiment: Antiproliferation assay (MTS), MDA-MB-468 cells. The following applies: Homo sapiens, MDA-MB-468, 96 h. The method, then:
as §1, §2

[1] abbreviates: Table 1, read-out: Antiproliferative IC50 Hela.
The mark [2] stands for this setting: Table 1, read-out: Antiproliferative IC50 K562.
The mark [3] stands for this setting: Table 1, read-out: Antiproliferative IC50 MDA-MB-468.
Setting [4] is: Table 2, read-out: Antiproliferative IC50 Hela.

One may read the IC50 as the midpoint of a concentration-inhibition curve. For the molecule `Cc1cc(N(C)C)cc(C)c1-c1csc(NC(=O)c2ccncc2)n1` [Compound 1, N-{4-(4-(Dimethylamino)-2,6-dimethylphenyl)thiazol-2-yl}isonicotinamide], the IC50 with Hela (setting [1]) came out at 0.251 µM; with MDA-MB-231 it was 0.144 µM; in the experiment with K562 (setting [2]) it was 0.0867 µM; in the experiment on MDA-MB-468 (setting [3]), 0.167 µM.
The corresponding values for `COc1ccc(Oc2cc(C)c(-c3nc(NC(=O)c4ccncc4)sc3Br)c(C)c2)cc1` [Compound 2, N-{5-Bromo-4-(4-(4-methoxyphenoxy)-2,6-dimethylphenyl)thiazol-2-yl}isonicotinamide] are 0.66 µM, 0.484 µM, 0.273 µM and 0.594 µM.
The corresponding values for `COc1ccc(Sc2cc(C)c(-c3csc(NC(=O)c4ccncc4)n3)c(Cl)c2)cc1` [Compound 3, N-{4-(2-Chloro-4-(4-methoxyphenylsulfanyl)-6-methylphenyl)thiazol-2-yl}isonicotinamide] are 0.0269 µM, 0.0282 µM, 0.0234 µM and 0.027 µM.
The corresponding values for `Cc1cc(OCC2CC2)cc(C)c1-c1csc(NC(=O)c2ccncc2)n1` [Compound 4, N-{4-(4-(Cyclopropylmethoxy)-2,6-dimethylphenyl)thiazol-2-yl}isonicotinamide] are 0.281 µM, 0.157 µM, 0.207 µM and 0.245 µM.
In the case of `Cc1cc(Oc2ccc(O)nc2)cc(C)c1-c1csc(NC(=O)c2ccncc2)n1` [Compound 5, N-{4-(4-(6-Hydroxypyridin-3-yloxy)-2,6-dimethylphenyl)thiazol-2-yl}isonicotinamide], the IC50 with Hela (setting [1]) was 0.903 µM; in the experiment on MDA-MB-231, 1.24 µM; in the experiment on K562 (setting [2]), 0.563 µM; with MDA-MB-468 (setting [3]) it was 1.01 µM.
The corresponding values for `Cc1cc(Oc2ncccn2)cc(C)c1-c1csc(NC(=O)c2ccncc2)n1` [Compound 6, N-{4-(2,6-Dimethyl-4-(pyrimidin-2-yloxy)phenyl)thiazol-2-yl}isonicotinamide] are 1.02 µM, 0.713 µM, 0.366 µM and 0.661 µM.
The corresponding values for `Cc1cc(Oc2cnccn2)cc(C)c1-c1csc(NC(=O)c2ccncc2)n1` [Compound 7, N-{4-(2,6-Dimethyl-4-(pyrazin-2-yloxy)phenyl)thiazol-2-yl}isonicotinamide] are 0.217 µM, 0.161 µM, 0.092 µM and 0.191 µM.
The corresponding values for `COc1cnc(Oc2cc(C)c(-c3csc(NC(=O)c4ccncc4)n3)c(C)c2)nc1` [Compound 8, N-{4-(4-(5-Methoxypyrimidin-2-yloxy)-2,6-dimethylphenyl)thiazol-2-yl}isonicotinamide] are 0.13 µM, 0.121 µM, 0.0718 µM and 0.0854 µM.
With `COc1ccc(Oc2cc(C)c(-c3csc(NC(=O)c4ccncc4)n3)c(C)c2)cn1` [Compound 9, N-{4-(4-(6-Methoxypyridin-3-yloxy)-2,6-dimethylphenyl)thiazol-2-yl}isonicotinamide], the concentration for half-maximal inhibition (IC50) was 0.0816 µM in the experiment on Hela (setting [1]), 0.0658 µM with MDA-MB-231, 0.0391 µM in the experiment with K562 (setting [2]) and 0.0484 µM with MDA-MB-468 (setting [3]).
Take `COc1cc(Cl)c(-c2csc(NC(=O)c3ccncc3)n2)c(Cl)c1` [Compound 10, N-(4-(2,6-Dichloro-4-methoxyphenyl)thiazol-2-yl)isonicotinamide]: the IC50 with Hela (setting [1]) was found to be 4.43 µM; in the experiment with MDA-MB-231, 2.33 µM; in the experiment on K562 (setting [2]) it was 0.633 µM; in the experiment with MDA-MB-468 (setting [3]) it was 6.55 µM.
As to `Cc1cc(Sc2cnccn2)cc(C)c1-c1csc(NC(=O)c2ccncc2)n1` [Compound 11, N-{4-(2,6-Dimethyl-4-(pyrazin-2-ylthio)phenyl)thiazol-2-yl}isonicotinamide], the IC50 in the experiment with Hela (setting [1]) was found to be 0.0334 µM; in the experiment with MDA-MB-231, 0.0474 µM; in the experiment with K562 (setting [2]) it was 0.0382 µM; with MDA-MB-468 (setting [3]), 0.0524 µM.
For the molecule `COc1cc(F)c(-c2csc(NC(=O)c3ccncc3)n2)c(Cl)c1` [Compound 13, N-(4-(2-Chloro-6-fluoro-4-methoxyphenyl)thiazol-2-yl)isonicotinamide], the IC50 in the experiment on Hela (setting [1]) came to 0.375 µM; with MDA-MB-231 it was 0.386 µM; in the experiment with K562 (setting [2]), 0.247 µM; in the experiment with MDA-MB-468 (setting [3]), 1.02 µM.
The corresponding values for `COc1cc(F)cc(Cl)c1-c1csc(NC(=O)c2ccncc2)n1` [Compound 14, N-(4-(2-Chloro-4-fluoro-6-methoxyphenyl)thiazol-2-yl)isonicotinamide] are 2.99 µM, 6.35 µM, 3.69 µM and 9.43 µM.
The corresponding values for `Cc1cc(Oc2ccc(OC(C)C)cc2)cc(C)c1-c1csc(NC(=O)c2ccncc2)n1` [Compound 16, N-{4-(4-(4-Isopropoxyphenoxy)-2,6-dimethylphenyl)thiazol-2-yl}isonicotinamide] are 0.0801 µM, 0.0807 µM, 0.0592 µM and 0.0697 µM.
The corresponding values for `COc1ccc(Oc2cc(C)c(-c3csc(NC(=O)c4ccncc4)n3)c(C)c2)nc1` [Compound 18, N-(4-{4-((5-Methoxypyridin-2-yl)oxy)-2,6-dimethylphenyl}thiazol-2-yl)isonicotinamide] are 0.0406 µM, 0.0408 µM, 0.0437 µM and 0.0494 µM.
Regarding `Cc1cc(OCCN(C)C)cc(C)c1-c1csc(NC(=O)c2ccncc2)n1` [Compound 23, N-(4-{4-(2-(Dimethylamino)ethoxy)-2,6-dimethylphenyl}thiazol-2-yl)isonicotinamide], the IC50 with Hela (setting [1]), with MDA-MB-231, with K562 (setting [2]) and with MDA-MB-468 (setting [3]) was more than 10 µM each time.
`Cc1cc(Oc2ccc([N+](=O)[O-])nc2)cc(C)c1-c1csc(NC(=O)c2ccncc2)n1` [Compound 24, N-{4-(2,6-Dimethyl-4-(6-nitropyridin-3-yloxy)phenyl)thiazol-2-yl}isonicotinamide]: the IC50 in the experiment on Hela (setting [1]) was found to be 0.0738 µM; with MDA-MB-231 it was 0.181 µM; in the experiment with K562 (setting [2]) it was 0.148 µM; in the experiment on MDA-MB-468 (setting [3]), 0.158 µM.
Take `Cc1cc(Oc2ccc(Oc3ccccc3)cc2)cc(C)c1-c1csc(NC(=O)c2ccncc2)n1` [Compound 26, N-{4-(2,6-Dimethyl-4-(4-phenoxyphenoxy)phenyl)thiazol-2-yl}isonicotinamide]: the IC50 in the experiment with Hela (setting [1]) is 0.0848 µM; in the experiment with MDA-MB-231, 0.0994 µM; in the experiment on K562 (setting [2]), 0.0644 µM; with MDA-MB-468 (setting [3]), 0.132 µM.
The corresponding values for `Cc1cc(Sc2cnc(OCCN(C)C)cn2)cc(C)c1-c1csc(NC(=O)c2ccncc2)n1` [Compound 28, N-(4-(4-{5-(2-(Dimethylamino)ethoxy)pyrazin-2-ylthio}-2,6-dimethylphenyl)thiazol-2-yl)isonicotinamide] are 0.0328 µM, 0.124 µM, 0.0592 µM and 0.0745 µM.
In the case of `COCCNc1ccc(Oc2cc(C)c(-c3csc(NC(=O)c4ccncc4)n3)c(C)c2)cn1` [Compound 29, N-(4-{4-(6-(2-Methoxyethylamino)pyridin-3-yloxy)-2,6-dimethylphenyl}thiazol-2-yl)isonicotinamide], the IC50 is 0.0083 µM with Hela (setting [1]), 0.0219 µM in the experiment on MDA-MB-231, 0.0117 µM in the experiment on K562 (setting [2]) and 0.0166 µM with MDA-MB-468 (setting [3]).
On to `COc1cc(C)c(-c2csc(NC(=O)Nc3ccncc3)n2)c(C)c1` [Compound 45, 1-(4-(4-Methoxy-2,6-dimethylphenyl)thiazol-2-yl)-3-(pyridin-4-yl)urea], for which the IC50 in the experiment on MDA-MB-231 worked out at 0.628 µM; in the experiment on K562 (setting [2]), 0.486 µM; with MDA-MB-468 (setting [3]), 0.615 µM.
On to `Cc1cc(C)c(-c2csc(NC(=O)/C=C/c3cccnc3)n2)c(C)c1` [Compound 50, (E)-N-(4-Mesitylthiazol-2-yl)-3-(pyridin-3-yl)acrylamide], for which the results for the IC50 in the experiment on MDA-MB-231 and in the experiment with MDA-MB-468 (setting [3]) were 1.11 µM and 2.17 µM, respectively.
Consider `Cc1cc(Nc2ccc(Br)cc2)cc(C)c1-c1csc(NC(=O)c2ccncc2)n1` [Compound 52, N-(4-(4-(4-Bromophenylamino)-2,6-dimethylphenyl)thiazol-2-yl)isonicotinamide], for which the IC50 in the experiment with Hela (setting [1]) was 2.13 µM; in the experiment with MDA-MB-231, 0.717 µM; in the experiment with K562 (setting [2]) it was 0.362 µM.
Turning to `COc1cc(C)c(-c2csc(NC(=O)Nc3ccncc3)n2)c(C)c1` [II-67, 1-(4-(4-Methoxy-2,6-dimethylphenyl)thiazol-2-yl)-3-(pyridin-4-yl)urea], in the experiment on Hela (setting [4]), the half-inhibitory concentration (IC50) was more than 10 µM.
In the case of `Cc1cc(C)c(-c2csc(NC(=O)/C=C/c3cccnc3)n2)c(C)c1` [II-103, (E)-N-(4-Mesitylthiazol-2-yl)-3-(pyridin-3-yl)acrylamide], the IC50 in the experiment on Hela (setting [4]) was more than 10 µM; with K562 (Table 2, read-out: Antiproliferative IC50 K562) it was 2.48 µM.
Take `Cc1cc(Nc2ccc(Br)cc2)cc(C)c1-c1csc(NC(=O)c2ccncc2)n1` [II-122, N-(4-(4-(4-Bromophenylamino)-2,6-dimethylphenyl)thiazol-2-yl)isonicotinamide]: in the experiment on MDA-MB-468 (Table 2, read-out: Antiproliferative IC50 MDA-MB-468), the IC50 was 1.22 µM.
